PubChem BioAssay (NCI)
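1) Cells in 96-well plates. 2) Compound, 48 h, 5 concentrations. 3) Linear interpolation between surrounding doses. 4) Unreached endpoint = highest concentration. Here, GI50 denotes the concentration required for 50% inhibition of growth. TGI: concentration producing complete growth inhibition.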

What was measured:
Test in all cases: growth of human tumour cells (NCI), 48 h
CCRF-CEM leukemia = test system: CCRF-CEM leukemia
SNB-75 CNS = test system: SNB-75 CNS
MOLT-4 leukemia = test system: MOLT-4 leukemia
CAKI-1 renal = test system: CAKI-1 renal
SF-539 CNS = test system: SF-539 CNS
ACHN renal = test system: ACHN renal
HL-60(TB) leukemia = test system: HL-60(TB) leukemia
U251 CNS = test system: U251 CNS
HCC-2998 colon = test system: HCC-2998 colon
M14 melanoma = test system: M14 melanoma
IGROV1 ovarian = test system: IGROV1 ovarian
NCI-H522 lung = test system: NCI-H522 lung
HOP-62 NSCLC = test system: HOP-62 NSCLC
TK-10 renal = test system: TK-10 renal
COLO 205 colon = test system: COLO 205 colon
SR leukemia = test system: SR leukemia
UACC-62 melanoma = test system: UACC-62 melanoma
OVCAR-4 ovarian = test system: OVCAR-4 ovarian
KM12 colon = test system: KM12 colon
MALME-3M melanoma = test system: MALME-3M melanoma
PC-3 prostate = test system: PC-3 prostate
HOP-92 NSCLC = test system: HOP-92 NSCLC
MDA-MB-435 = test system: MDA-MB-435
UACC-257 melanoma = test system: UACC-257 melanoma
NCI-H460 lung = test system: NCI-H460 lung
HT29 colon = test system: HT29 colon
OVCAR-5 ovarian = test system: OVCAR-5 ovarian
HCT-15 colon = test system: HCT-15 colon
T-47D breast = test system: T-47D breast
HCT-116 colon = test system: HCT-116 colon
MDA-MB-231 breast = test system: MDA-MB-231 breast
RPMI-8226 leukemia = test system: RPMI-8226 leukemia
SN12C renal = test system: SN12C renal
NCI-H226 lung = test system: NCI-H226 lung
RXF 393 renal = test system: RXF 393 renal
NCI/ADR-RES ovarian = test system: NCI/ADR-RES ovarian
SF-295 CNS = test system: SF-295 CNS
786-0 renal = test system: 786-0 renal
A498 renal = test system: A498 renal
EKVX NSCLC = test system: EKVX NSCLC
SK-MEL-28 melanoma = test system: SK-MEL-28 melanoma
MCF7 breast = test system: MCF7 breast
HS 578T breast = test system: HS 578T breast
DU-145 prostate = test system: DU-145 prostate
OVCAR-3 ovarian = test system: OVCAR-3 ovarian
LOX IMVI melanoma = test system: LOX IMVI melanoma
SK-MEL-5 melanoma = test system: SK-MEL-5 melanoma
SK-OV-3 ovarian = test system: SK-OV-3 ovarian
SNB-19 CNS = test system: SNB-19 CNS
NCI-H23 lung = test system: NCI-H23 lung
BT-549 breast = test system: BT-549 breast
SW-620 colon = test system: SW-620 colon
SK-MEL-2 melanoma = test system: SK-MEL-2 melanoma
OVCAR-8 ovarian = test system: OVCAR-8 ovarian
SF-268 CNS = test system: SF-268 CNS
UO-31 renal = test system: UO-31 renal
A549 NSCLC = test system: A549 NSCLC

## Oc1c(CN2CCC(N3CCOCC3)CC2)cc(Cc2cc(CN3CCC(N4CCOCC4)CC3)c(O)c3ncccc23)c2cccnc12
CCRF-CEM leukemia
  GI50: 0.337 µM
  TGI: > 100 µM
SNB-75 CNS
  GI50: 2.57 µM
  TGI: 38.2 µM
MOLT-4 leukemia
  GI50: 0.49 µM
  TGI: 12.1 µM
CAKI-1 renal
  GI50: 0.643 µM
  TGI: 21.2 µM
SF-539 CNS
  GI50: 1.11 µM
  TGI: 2.9 µM
ACHN renal
  GI50: 0.481 µM
  TGI: 12.9 µM
HL-60(TB) leukemia
  GI50: 0.789 µM
  TGI: 3.71 µM
U251 CNS
  GI50: 0.385 µM
  TGI: 17.6 µM
HCC-2998 colon
  GI50: 1.52 µM
  TGI: 13.5 µM
M14 melanoma
  GI50: 0.61 µM
  TGI: 17.1 µM
IGROV1 ovarian
  GI50: 0.61 µM
  TGI: 48.2 µM
NCI-H522 lung
  GI50: 2.53 µM
  TGI: 9.95 µM
HOP-62 NSCLC
  GI50: 0.356 µM
  TGI: 18.4 µM
TK-10 renal
  GI50: 1.12 µM
  TGI: 16.7 µM
COLO 205 colon
  GI50: 0.596 µM
  TGI: 10.6 µM
SR leukemia
  GI50: 0.593 µM
  TGI: 20.5 µM
UACC-62 melanoma
  GI50: 0.434 µM
  TGI: 5.29 µM
OVCAR-4 ovarian
  GI50: 0.434 µM
  TGI: > 100 µM
KM12 colon
  GI50: 0.428 µM
  TGI: > 100 µM
MALME-3M melanoma
  GI50: 4.22 µM
  TGI: 26.5 µM
PC-3 prostate
  GI50: 0.565 µM
  TGI: > 100 µM
HOP-92 NSCLC
  GI50: 4.16 µM
  TGI: 36.6 µM
MDA-MB-435
  GI50: 2.01 µM
  TGI: 74.7 µM
UACC-257 melanoma
  GI50: 3.62 µM
  TGI: 16.3 µM
NCI-H460 lung
  GI50: 0.471 µM
  TGI: 16.6 µM
HT29 colon
  GI50: 0.709 µM
  TGI: 22.3 µM
OVCAR-5 ovarian
  GI50: 2.14 µM
  TGI: > 100 µM
HCT-15 colon
  GI50: 0.633 µM
  TGI: 26.4 µM
T-47D breast
  GI50: 1.11 µM
  TGI: 17 µM
HCT-116 colon
  GI50: 0.383 µM
  TGI: 48.7 µM
MDA-MB-231 breast
  GI50: 0.27 µM
  TGI: 5.03 µM
RPMI-8226 leukemia
  GI50: 3.77 µM
  TGI: > 100 µM
SN12C renal
  GI50: 0.67 µM
  TGI: > 100 µM
NCI-H226 lung
  GI50: 0.641 µM
  TGI: 4.75 µM
RXF 393 renal
  GI50: 3.06 µM
  TGI: 18.7 µM
NCI/ADR-RES ovarian
  GI50: 3.54 µM
  TGI: > 100 µM
SF-295 CNS
  GI50: 0.549 µM
  TGI: 3.13 µM
786-0 renal
  GI50: 1.07 µM
  TGI: 17.7 µM
A498 renal
  GI50: 3.74 µM
  TGI: 13.9 µM
EKVX NSCLC
  GI50: 0.737 µM
  TGI: > 100 µM
SK-MEL-28 melanoma
  GI50: 1.4 µM
  TGI: 22.9 µM
MCF7 breast
  GI50: 0.543 µM
  TGI: > 100 µM
HS 578T breast
  GI50: 10 µM
  TGI: 48 µM
DU-145 prostate
  GI50: 0.612 µM
  TGI: > 100 µM
OVCAR-3 ovarian
  GI50: 0.976 µM
  TGI: 11.9 µM
LOX IMVI melanoma
  GI50: 0.466 µM
  TGI: 4.54 µM
SK-MEL-5 melanoma
  GI50: 1.59 µM
  TGI: 5.11 µM
SK-OV-3 ovarian
  GI50: 0.758 µM
  TGI: 8.96 µM
SNB-19 CNS
  GI50: 0.67 µM
  TGI: > 100 µM
NCI-H23 lung
  GI50: 2.07 µM
  TGI: > 100 µM
BT-549 breast
  GI50: 1.2 µM
  TGI: 29 µM
SW-620 colon
  GI50: 0.689 µM
  TGI: > 100 µM
SK-MEL-2 melanoma
  GI50: 4.64 µM
  TGI: 30.3 µM
OVCAR-8 ovarian
  GI50: 1.57 µM
  TGI: 21.9 µM
SF-268 CNS
  GI50: 0.343 µM
  TGI: 38.1 µM
UO-31 renal
  GI50: 0.366 µM
  TGI: 4.48 µM
A549 NSCLC
  GI50: 1.62 µM
  TGI: 12.5 µM
